Data set [1] deals with MCF7. Put plainly: Inhibition of clone formation in human MCF7 cells at 0.75 to 6 uM by crystal voilet staining based analysis. In kind it is functional, cell-based. As to conditions: dose 0.75-6 µM, time 2.0 weeks.
Data set [2] relates to MCF7. Put plainly: Induction of cell cycle arrest in human MCF7 cells assessed as accumulation of cells at G2 phase at 1.5 uM incubated for 24 hrs by propidium iodide staining based flow cytometry analysis (reference value: 29.66%). The class given is functional.
In data set [3] the test system is T47D. The data set is described as follows: Antiproliferative activity against human T47D cells assessed as cell growth inhibition incubated for 72 hrs by CCK-8 assay. In kind it is functional.
Data set [4] is described as follows: AUC (0 to infinity) in Sprague-Dawley rat 1 mg/kg, iv by LC/MS/MS analysis. As to conditions: in vivo. Also noted: time infinity, dose 1 mg/kg, route iv. In kind it is ADME, organism-based.
Data set [5] concerns MCF7. The data set is described as follows: Antiproliferative activity against human MCF7 cells assessed as cell growth inhibition incubated for 72 hrs by CCK-8 assay. The class given is functional.
Data set [6] is described as follows: Half life in Sprague-Dawley rat 10 mg/kg, po by LC/MS/MS analysis. In kind it is ADME, organism-based. To be noted: in vivo.
Data set [7] in a line: Thermodynamic solubility of the compound incubated for 24 hrs under shaking condition by LC-MS/MS analysis. As to conditions: read-out: Therm_solubility. The class given is physicochemical.

In brackets after ≈: the same amount, converted by molar mass. Activity calls are given as the source filed them. No cut-off for these calls is given here.

In the case of `CCN1CCc2cc(-c3nc(Nc4ccc(N5CCNCC5)cn4)ncc3F)ccc2C1=O`, in data set [1], the inhibition result is “Active”. In addition, the Activity in data set [2] was found to be 13.57%. Further, the figures for the GI50 in data set [3] and in data set [5] were 887 nM and 2700 nM, respectively. The AUC(0-inf) in data set [4] worked out at 373 ng·h/mL. This compound also had a half-life in data set [6] of 3.59 h. The solubility thermodynamic at 24 h in data set [7] amounted to 1020 µg/mL (≈ 2280 µM).

For the origin of these results see ChEMBL document CHEMBL5096234, “Discovery, Optimization, and Evaluation of Selective CDK4/6 Inhibitors for the Treatment of Breast Cancer” (J Med Chem, 2022).
